Results published in ChEMBL document CHEMBL3259781 (J Med Chem, 2014).
Blank lines part the entries; values can stand above or below the molecule they belong to.

How the values were obtained:
Homo sapiens = species on record: Homo sapiens; assay: Selectivity ratio of Ki for human recombinant adenosine A1 receptor to Ki for human recombinant adenosine receptor A2a
Adenosine receptor A1 [1] = biological target: T1, Adenosine receptor A1 (Homo sapiens, UniProt P30542)
T1 sequence (P30542 whole entry): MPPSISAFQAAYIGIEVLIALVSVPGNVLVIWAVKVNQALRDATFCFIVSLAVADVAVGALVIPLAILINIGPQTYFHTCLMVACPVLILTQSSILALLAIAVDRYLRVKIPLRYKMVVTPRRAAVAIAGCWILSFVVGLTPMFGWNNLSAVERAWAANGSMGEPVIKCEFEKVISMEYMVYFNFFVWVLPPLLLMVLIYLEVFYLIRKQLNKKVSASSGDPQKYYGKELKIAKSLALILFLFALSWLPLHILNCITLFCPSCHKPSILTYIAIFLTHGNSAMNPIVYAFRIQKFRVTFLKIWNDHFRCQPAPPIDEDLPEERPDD

Adenosine receptor A2a [2] = biological target: T2, Adenosine receptor A2a (Homo sapiens, UniProt P29274); assay: Inhibition of human recombinant adenosine receptor A2a at 10 nM
T2 sequence (P29274 whole entry): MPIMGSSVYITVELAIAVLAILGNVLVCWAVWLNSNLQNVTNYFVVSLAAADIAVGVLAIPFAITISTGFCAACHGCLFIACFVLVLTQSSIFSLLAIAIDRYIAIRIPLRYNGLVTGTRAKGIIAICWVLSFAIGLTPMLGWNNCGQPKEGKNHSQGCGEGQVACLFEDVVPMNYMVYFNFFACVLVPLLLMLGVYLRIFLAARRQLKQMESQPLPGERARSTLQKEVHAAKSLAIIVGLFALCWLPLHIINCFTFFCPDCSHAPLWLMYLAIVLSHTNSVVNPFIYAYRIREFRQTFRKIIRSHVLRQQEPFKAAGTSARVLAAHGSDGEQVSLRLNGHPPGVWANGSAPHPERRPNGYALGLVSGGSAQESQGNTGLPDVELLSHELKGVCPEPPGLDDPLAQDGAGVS

Adenosine receptor A2a [3] = biological target: T2, Adenosine receptor A2a; assay: Inhibition of human recombinant adenosine receptor A2a at 100 nM
[4] = biological target: T3, Adenosine receptor A2b (Homo sapiens) (UniProt P29275); assay: Inhibition of human recombinant adenosine receptor A2b at 1 uM
T3 sequence (whole entry): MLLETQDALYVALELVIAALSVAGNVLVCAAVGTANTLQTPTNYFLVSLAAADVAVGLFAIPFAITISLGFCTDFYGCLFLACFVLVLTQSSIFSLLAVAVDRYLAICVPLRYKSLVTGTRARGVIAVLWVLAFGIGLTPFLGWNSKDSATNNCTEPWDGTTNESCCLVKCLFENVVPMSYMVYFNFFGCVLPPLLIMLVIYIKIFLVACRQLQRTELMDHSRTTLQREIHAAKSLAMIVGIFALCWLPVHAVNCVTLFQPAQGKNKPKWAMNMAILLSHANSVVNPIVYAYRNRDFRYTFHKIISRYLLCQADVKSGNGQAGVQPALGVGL

[5] = biological target: T3, Adenosine receptor A2b (Homo sapiens); assay: Inhibition of human recombinant adenosine receptor A2b at 10 uM
[6] = biological target: T4, Adenosine receptor A1 (Homo sapiens) (UniProt P30542); assay: Inhibition of human recombinant adenosine A1 receptor at 1 uM
T4 sequence (whole entry): T1 sequence (P30542 whole entry)

[7] = biological target: T4, Adenosine receptor A1 (Homo sapiens); assay: Inhibition of human recombinant adenosine A1 receptor at 10 uM
Mus musculus [8] = assay: Anticataleptic activity in mouse assessed as inhibition of CGS21680-induced catalepsy at 10 mg/kg, po; assay type: functional
Adenosine receptor A3 [9] = biological target: T5, Adenosine receptor A3 (Homo sapiens, UniProt P0DMS8)
T5 sequence (P0DMS8 whole entry): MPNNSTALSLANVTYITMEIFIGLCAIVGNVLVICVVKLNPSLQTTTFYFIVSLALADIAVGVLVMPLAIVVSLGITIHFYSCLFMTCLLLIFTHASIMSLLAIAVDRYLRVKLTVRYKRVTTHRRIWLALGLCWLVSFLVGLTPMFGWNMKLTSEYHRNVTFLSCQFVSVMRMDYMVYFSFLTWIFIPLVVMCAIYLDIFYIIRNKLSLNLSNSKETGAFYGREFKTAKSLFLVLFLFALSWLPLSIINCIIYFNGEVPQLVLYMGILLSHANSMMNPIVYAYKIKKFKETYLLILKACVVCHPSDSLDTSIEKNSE

Rattus norvegicus [10] = assay: Anticataleptic activity in po dosed rat assessed as inhibition of haloperidol-induced catalepsy; assay type: functional
Adenosine receptor A2a [11] = biological target: Adenosine receptor A2a (Rattus norvegicus, UniProt P30543); assay: Binding affinity to rat recombinant adenosine receptor A2a
Adenosine receptor A2a (Rattus norvegicus, UniProt P30543), sequence (P30543 whole entry): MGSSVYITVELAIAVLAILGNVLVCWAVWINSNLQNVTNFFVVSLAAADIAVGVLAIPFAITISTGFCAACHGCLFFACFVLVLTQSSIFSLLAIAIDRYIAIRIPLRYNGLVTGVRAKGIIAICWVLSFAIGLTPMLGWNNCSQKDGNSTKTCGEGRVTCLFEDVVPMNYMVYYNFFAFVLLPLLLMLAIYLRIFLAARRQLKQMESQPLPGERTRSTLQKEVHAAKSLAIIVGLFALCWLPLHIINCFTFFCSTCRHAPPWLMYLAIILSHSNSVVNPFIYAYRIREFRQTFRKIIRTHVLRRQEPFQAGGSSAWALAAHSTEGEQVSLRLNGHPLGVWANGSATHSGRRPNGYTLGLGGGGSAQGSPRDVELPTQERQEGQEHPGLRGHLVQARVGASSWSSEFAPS

Adenosine receptor A3 [12] = biological target: T5, Adenosine receptor A3; assay: Binding affinity to human recombinant adenosine A3 receptor
Adenosine receptor A2b = biological target: T6, Adenosine receptor A2b (Homo sapiens, UniProt P29275)
T6 sequence (P29275 whole entry): T3 sequence (whole entry)

Adenosine receptor A1 [13] = biological target: T1, Adenosine receptor A1; remark: listed apart in the source
Adenosine receptor A1 [14] = biological target: T7, Adenosine receptor A1 (Rattus norvegicus, UniProt P25099); assay: Binding affinity to rat recombinant adenosine A1 receptor
T7 sequence (P25099 whole entry): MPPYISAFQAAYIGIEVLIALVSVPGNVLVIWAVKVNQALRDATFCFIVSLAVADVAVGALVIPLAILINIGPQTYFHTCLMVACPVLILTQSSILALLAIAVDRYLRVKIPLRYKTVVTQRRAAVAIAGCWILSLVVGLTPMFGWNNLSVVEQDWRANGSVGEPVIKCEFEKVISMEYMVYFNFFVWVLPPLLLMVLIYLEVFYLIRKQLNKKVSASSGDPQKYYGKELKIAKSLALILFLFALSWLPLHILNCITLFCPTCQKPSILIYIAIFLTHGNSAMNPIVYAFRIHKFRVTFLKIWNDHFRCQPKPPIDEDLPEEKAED

Adenosine receptor A2a [15] = biological target: T2, Adenosine receptor A2a
Rattus norvegicus [16] = species on record: Rattus norvegicus; assay: Selectivity ratio of Ki for rat striatal adenosine A1 receptor to Ki for rat recombinant adenosine receptor A2a
Adenosine receptor A1 [17] = biological target: T7, Adenosine receptor A1
Mus musculus [18] = assay: Anticataleptic activity in po dosed mouse assessed as inhibition of haloperidol-induced catalepsy; assay type: functional
[19] = Oral bioavailability in rat; assay type: ADME, organism-based; conditions: in vivo
[20] = Solubility of the compound in water pH 7.4; assay type: physicochemical
Rattus norvegicus [21] = species on record: Rattus norvegicus; assay: Anticataleptic activity in rat assessed as minimum efficacious dose; assay type: functional; conditions: read-out: MED
[22] = biological target: Adenosine receptor A2a (Rattus norvegicus) (UniProt P30543); assay: Receptor occupancy at adenosine receptor A2a in rat striatum; assay type: tissue-based
Adenosine receptor A2a (Rattus norvegicus), sequence (P30543 whole entry): as the sequence (P30543 whole entry) above

SMILES: COCCOc1ccc(N2CCN(CCn3cnc4c3nc(N)n3nc(-c5ccccn5)nc43)CC2)cc1
Ratio Ki (Homo sapiens): 108 | Ki (Adenosine receptor A1 [1]): 1360 nM

SMILES: COc1ccc(-c2ccccc2)c2cc(C(=O)N3CCOCC3)oc12
inhibition (Adenosine receptor A2a [2]): 39% | inhibition (Adenosine receptor A2a [3]): 81% | inhibition [4]: 81% | inhibition [5]: 98% | inhibition [6]: 37% | inhibition [7]: 82% | inhibition in vivo at 10 mg/kg (Mus musculus [8]): 78%

SMILES: Nc1nc(-c2ccccc2)c2c(n1)-c1cc(CN3CCCC3)ccc1C2=O
ED50 (Rattus norvegicus [10]): 0.5 mg/kg

SMILES: O=C(Nc1ccc(F)cc1)Nc1ccc(Nc2nc(-c3ccccc3)nc3c2nnn3Cc2ccccc2)cc1
Ki (Adenosine receptor A1 [14]): 107 nM | Ki (Adenosine receptor A3 [12]): 92 nM | Ki (Adenosine receptor A2a [15]): 167 nM

SMILES: Nc1nc(NC[C@H]2CCCN2Cc2ccnc(Cl)c2)nc2nc(-c3ccco3)nn12
Ratio Ki (Rattus norvegicus [16]): 63 | Ki (Adenosine receptor A1 [17]): > 250 nM

SMILES: Nc1nc(-c2ccccc2)c2c(n1)-c1cc(OCCN3CCOCC3)ccc1C2=O
ED50 (Mus musculus [18]): 0.3 mg/kg

SMILES: CC(O)(C#Cc1cn2nc(-c3ccco3)nc2c(N)n1)c1ccccc1 (stereo not drawn)
Ratio Ki (Rattus norvegicus [16]): 3.4

SMILES: CC(C)n1cc(-c2ncc(N)nc2-c2ccc(F)cc2)ccc1=O
minimal effective dose (Rattus norvegicus [21]): 0.1 mg/kg | Activity [22]: 85% | Ki (Adenosine receptor A3 [9]): > 557 nM

SMILES: CC1(C)CCCN(c2nnc(N)nc2-c2ccccc2)C1
Ratio Ki (Homo sapiens): 245 | Ki (Adenosine receptor A1 [1]): 10000 nM

SMILES: COC(=O)Nc1cc2c(-c3ccccc3)ccc(OC)c2o1
inhibition in vivo at 10 mg/kg (Mus musculus [8]): 86%

SMILES: Nc1nc(-c2ccccc2)c2c(n1)-c1cc(NCCN3CCOCC3)ccc1C2=O
ED50 (Mus musculus [18]): < 0.1 mg/kg

SMILES: Nc1nc2c(cnn2CCN2CCOCC2)c2nn(Cc3cccc(Cl)c3)c(=O)n12
Ratio Ki (Homo sapiens): 99 | Ki (Adenosine receptor A1 [1]): 1400 nM

SMILES: CC1CN(c2nnc(N)nc2-c2ccccc2)CC(C)O1 (stereo not drawn)
Ratio Ki (Homo sapiens): 617 | Ki (Adenosine receptor A1 [1]): 10000 nM

SMILES: CN(CCN1CCN(c2ccc(F)cc2F)CC1)c1cc2nc(-c3cccc(C#N)c3)nn2c(N)n1
Ratio Ki (Homo sapiens): 620 | Ki (Adenosine receptor A1 [1]): 1120 nM

Other lines, results leading:

Ki (Adenosine receptor A3 [9]): > 10000 nM
SMILES: Nc1nc(NCCc2ccc(O)cc2)nc2nc(-c3ccco3)nn12 [ZM-241385]

Ratio Ki (Homo sapiens): 3 | Ki (Adenosine receptor A1 [1]): 24 nM
SMILES: CC(O)CCc1nc(N)c2nc(-n3nccn3)n(C)c2n1 (stereo not drawn)

Ratio Ki (Homo sapiens): 12 | Ki (Adenosine receptor A1 [1]): 79.2 nM | Ki (Adenosine receptor A3 [9]): > 10000 nM
SMILES: CCCCc1nc(N)c2nc(-n3nccn3)n(C)c2n1 [ST1535]

Ki (Adenosine receptor A2a [11]): 100 nM
SMILES: Nc1nc(Nc2ccccc2)nc2c1ncn2[C@@H]1O[C@H](CO)[C@@H](O)[C@H]1O

Ki (Adenosine receptor A3 [12]): 10000 nM | EC50 (Adenosine receptor A2b): 10000 nM | Ki (Adenosine receptor A1 [13]): 3770 nM
SMILES: CNC(=O)c1cnn(-c2nc(N)c3ncn([C@@H]4O[C@H](CO)[C@@H](O)[C@H]4O)c3n2)c1 [REGADENOSON ANHYDROUS]

Ratio Ki (Homo sapiens): 25 | bioavailability [19]: 90% | solubility [20]: > 450 µM
SMILES: COCc1cccc(CNC(=O)c2cc(-c3ccco3)nc(N)n2)n1

Ratio Ki (Homo sapiens): 16 | Ki (Adenosine receptor A1 [1]): 192 nM
SMILES: CC(=O)CCc1nc(N)c2nc(-n3nccn3)n(C)c2n1

Ki (Adenosine receptor A3 [12]): 19 nM | Ki (Adenosine receptor A2a [15]): 180 nM | Ki (Adenosine receptor A1 [13]): 1.39 nM
SMILES: Nc1nc(Cl)nc2c1ncn2[C@@H]1O[C@H](CO)[C@@H](O)[C@H]1O
